Source: the supplement of paper PMC10307832

What was measured:
Assay in all cases: relative viability (nuclei count vs DMSO), 5 days (fraction); higher = more cells survive
FG-4592 + OSI-027 = compound: Cc1nc(C(=O)NCC(=O)O)c(O)c2ccc(Oc3ccccc3)cc12 [FG-4592] + COc1cccc2cc(-c3nc([C@H]4CC[C@H](C(=O)O)CC4)n4ncnc(N)c34)[nH]c12 [OSI-027] (partner 0.5 µM)
Method in brief: (§1)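 Lung cancer cell lines in 1536-well plates got either a single drug or a fixed anchor-drug dose together with five library-drug doses (not always all listed) in √10 steps, by pin tool, on the day after seeding. Nuclei were counted after 5 days, and relative viability is the treated-to-vehicle ratio of nuclei counts. Values are medians of duplicate plates.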

FG-4592 + Vorinostat = compound: Cc1nc(C(=O)NCC(=O)O)c(O)c2ccc(Oc3ccccc3)cc12 [FG-4592] + O=C(CCCCCCC(=O)Nc1ccccc1)NO [Vorinostat] (partner 1 µM)
Method in brief: as §1

FG-4592 + Linsitinib = compound: Cc1nc(C(=O)NCC(=O)O)c(O)c2ccc(Oc3ccccc3)cc12 [FG-4592] + C[C@]1(O)C[C@@H](c2nc(-c3ccc4ccc(-c5ccccc5)nc4c3)c3c(N)nccn32)C1 [Linsitinib] (partner 1 µM)
Method in brief: as §1

FG-4592 + Alpelisib = compound: Cc1nc(C(=O)NCC(=O)O)c(O)c2ccc(Oc3ccccc3)cc12 [FG-4592] + Cc1nc(NC(=O)N2CCC[C@H]2C(N)=O)sc1-c1ccnc(C(C)(C)C(F)(F)F)c1 [Alpelisib] (partner 2 µM)
Method in brief: as §1

Cell Line	relative viability (FG-4592 + OSI-027; first compound 0.08 µM)	relative viability (FG-4592 + OSI-027; first compound 0.253 µM)	relative viability (FG-4592 + OSI-027; first compound 0.8 µM)	relative viability (FG-4592 + OSI-027; first compound 2.53 µM)	relative viability (FG-4592 + OSI-027; first compound 8 µM)	relative viability (FG-4592 + Vorinostat; first compound 0.08 µM)	relative viability (FG-4592 + Vorinostat; first compound 0.253 µM)	relative viability (FG-4592 + Vorinostat; first compound 0.8 µM)	relative viability (FG-4592 + Vorinostat; first compound 2.53 µM)	relative viability (FG-4592 + Vorinostat; first compound 8 µM)	relative viability (FG-4592 + Linsitinib; first compound 0.08 µM)	relative viability (FG-4592 + Linsitinib; first compound 0.253 µM)	relative viability (FG-4592 + Linsitinib; first compound 0.8 µM)	relative viability (FG-4592 + Linsitinib; first compound 2.53 µM)	relative viability (FG-4592 + Linsitinib; first compound 8 µM)	relative viability (FG-4592 + Alpelisib; first compound 0.08 µM)	relative viability (FG-4592 + Alpelisib; first compound 0.253 µM)	relative viability (FG-4592 + Alpelisib; first compound 0.8 µM)	relative viability (FG-4592 + Alpelisib; first compound 2.53 µM)	relative viability (FG-4592 + Alpelisib; first compound 8 µM)
NCI-H441	0.589	0.537	0.621	0.465	0.563	0.692	0.809	0.855	0.694	0.696	0.451	0.498	0.477	0.57	0.562	0.849	0.704	0.853	0.878	0.519
LCLC-103H	0.445	0.45	0.455	0.421	0.373	0.75	0.733	0.677	0.707	0.747	0.969	1.1	0.89	1.1	0.854	0.887	0.875	0.749	0.966	1.06
LCLC-97TM1	0.665	0.397	0.716	0.488	0.395	0.63	0.737		0.328	0.671	0.179	0.191	0.17		0.183	0.25	0.214	0.167		0.29
NCI-H727	0.41	0.46	0.596	0.524	0.593	1.07	1.17	1.28	1.33	1.21	0.298	0.307	0.3	0.268	0.271	0.533	0.582	0.545	0.56	0.561
NCI-H1355	0.376	0.372	0.353	0.301	0.35	0.553	0.632		0.596	0.644	0.87	0.778		0.843	0.736	0.797	0.788		0.869	0.743
HOP-62	0.839	0.736	0.814	0.722	0.713	0.61	0.686	0.451	0.486	0.816	0.947	1.03	0.921	1.03	0.931	0.998	0.935	0.771	1.03	0.929
NCI-H2085	0.788	0.735	0.648	0.519	0.652	0.693	0.755	0.65	0.769	0.771	0.804	0.861	0.758	0.878	0.815	0.911	0.889	0.967	1.04	0.935
